Reference: patent US20150190460A1, “OSTEOPONTIN PEPTIDE FRAGMENTS FOR USE IN SUPPRESSION OR PREVENTION OF TUMOR GROWTH” (FORSYTH DENTAL INFIRMARY FOR CHILDREN (D/B/A THE FORSYTH …, priority 2012, published 2015)

How the values were obtained:
[1] = tested on: 275-3-2 murine ras-transformed fibroblast cells; assay: Oral administration of osteopontin to 129B6F1 tumor-bearing mice; type: in vivo; settings: for size of the tumor: FIG. 1b
Method: A bovine OPN preparation (Lacprodan®, Arla Foods Ingredients, Viby, Denmark) was dissolved in deionized water, filtered, and administered at final concentrations of 0.03, 0.12, or 0.3 mg/ml to 129B6F1 tumor-bearing mice starting either on the day of tumor cell inoculation (Day 0) or five days later (Day 5). The mice were initially inoculated with 5×10^4 mycoplasma-free 275-3-2 murine ras-transformed fibroblast cells (see Wu 2000). Tumor size was measured with calipers and monitored until the tumors reached 20% of the body weight of the animals, at which time the mice were sacrificed and tissue/plasma samples collected. Statistical significance was calculated using one-way ANOVA with Bonferroni post-test.

[2] = Competition ELISA for bovine OPN in plasma of mice fed with OPN; type: in vivo; settings: mice fed 50 mg of OPN over 10-30 minutes
Method: In a previous experiment the inventors have detected osteopontin peptides in the plasma of mice fed with OPN using a competition ELISA for bovine OPN: the assay was designed to detect any peptides that can block interaction of intact bovine OPN with the polyclonal antibody used. Plasma from mice fed 50 mg of OPN over 10-30 minutes was analyzed using this ELISA. Peak antibody reactivity was detected at 1-4 hours after feeding, with the highest mean levels being close to 5000 ng/ml.

## OPN: bovine OPN preparation (Lacprodan®, Arla Foods Ingredients, Viby, Denmark)
[1]; oral OPN 0.12 mg/ml started five days after tumor cell injection, at 15 days
  size of the tumor: statistically significant decrease
[1]; oral OPN 0.3 mg/ml started five days after tumor cell injection, at 17 days
  size of the tumor: statistically significant decrease
[1]; oral OPN in drinking water started at the time of tumor injection (Day 0), up to 17 days, FIG. 1A
  effect on the size of the tumors: no significant effect
[1]; oral dosing experiments, 0.03, 0.12, 0.3 mg/ml, highest dose used
  most effective dose of OPN preparation: 0.3 mg/mL
[1]; oral, about 1.5 mg protein administered
  effect of treatment on mouse weight: nor is there any effect
[2]
  highest mean plasma levels (immunoreactive OPN peptides): ~5000 ng/mL
  time of peak antibody reactivity in plasma after feeding: 1 to 4 h
